The source of these data is patent US9023844B2, “Heterocyclylpyri (mi) dinylpyrazole as fungicidals” (Bayer Intellectual Property GmbH, priority 2011, dated 2015).

Data set [1] deals with Alternaria brassicae. The settings on record: in vivo.
In data set [2] the test system is Fusarium graminearum. Kind of data set: microbe, parasite or virus in culture. It is filed as cell-based. The following applies: at 50 μM.
Data set [3] is described as follows: Determination of log P values by HPLC on a reverse phase column (C18), EEC-Directive 79/831 Annex V.A8 (Methods A, B, C). The data set is classed as physicochemical. The settings on record: for chromatographic logP: reverse phase C18 HPLC column. A digest of the protocol: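 Three C18 chromatographic methods following EEC-Directive 79/831 Annex V.A8 gave the logP values. Method C (UPLC, 2.1 mm column) ran at 40 °C and 0.8 mL/min with a 3.25 min 10–95% acetonitrile gradient. Methods A and B both ran at 55 °C and 2.0 mL/min, with gradients of 10–95% in 4.25 min and 5–95% in 1.70 min.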

The subject of data set [4] is DON/Acetyl-DON production by Fusarium graminearum. The experiment in a line: microbe, parasite or virus in culture. The following applies: at 50 μM. The data set is classed as cell-based.
Data set [5] has as its system Botrytis cinerea. The experiment in a line: Example N: in vivo preventive test on Botrytis cinerea (grey mould). The settings on record: dose of 500 ppm; gherkin plants; grading 4-5 days after contamination. As to the method:
The active ingredients tested are prepared by homogenization in a mixture of acetone/tween/DMSO and then diluted with water to obtain the desired active material.
Gherkin plants (“Vert petit de Paris” variety), sown in starter cups on a 50/50 peat soil-pozzolana substrate and grown at 24° C., are treated at the Z11 cotyledon stage by spraying with the active ingredient prepared as described above. Plants, used as controls, are treated with the mixture of acetone/tween/DMSO/water not containing the active material.
After 24 hours, the plants are contaminated by spraying the cotyledons with an aqueous suspension of cryopreserved Botrytis cinerea spores (50 000 spores per ml). The spores are suspended in a nutrient solution composed of 10 g/L of PDB, 50 g/L of D-Fructose, 2 g/L of NH4NO3 and 1 g/L of KH2PO4. The contaminated gherkin plants are incubated at 17° C. and at 80% relative humidity.
Grading (% of efficacy) is carried out 4-5 days after the contamination, in comparison with the control plants.

The subject of data set [6] is Uromyces appendiculatus. The settings on record: in vivo.
Data set [7] concerns Sphaerotheca fuliginea. The settings on record: in vivo.
Data set [8] concerns Pyricularia oryzae. The data set is classed as in vivo.
The subject of data set [9] is Pyrenophora teres. The settings on record: in vivo.
In data set [10] the test system is Venturia inaequalis. Kind of data set: Example I: Venturia test (apples) / preventive. The settings on record: 100 ppm of active ingredient, preventive spray, evaluated 10 days after inoculation.
Protocol: After the spray coating has dried on, the plants are inoculated with an aqueous conidia suspension of the causal agent of apple scab (Venturia inaequalis) and then remain for 1 day in an incubation cabinet at approximately 20° C. and a relative atmospheric humidity of 100%.
The plants are then placed in a greenhouse at approximately 21° C. and a relative atmospheric humidity of approximately 90%.
The test is evaluated 10 days after the inoculation.
Data set [11] has as its system Plasmopara viticola. Kind of data set: Example H: Plasmopara test (grapevines) / preventive. The following applies: in vivo. The data set is classed as in vivo.
Data set [12] deals with Phytophthora infestans. It is filed as in vivo. The settings on record: in vivo.
Data set [13] relates to Puccinia recondita. The settings on record: in vivo.
Data set [14] concerns Sphaerotheca fuliginea. The experiment in a line: Example A: Sphaerotheca test (cucumber) / preventive. The data set is classed as in vivo. The following applies: in vivo.
Data set [15] deals with Uromyces appendiculatus. The experiment in a line: Example B: Uromyces test (beans) / preventive. It is filed as in vivo. The settings on record: in vivo.
For data set [16], the system named is Fusarium graminearum. The data set is classed as in vivo. The settings on record: in vivo.
Data set [17] relates to Puccinia recondita. Kind of data set: Example E: Puccinia test (wheat) / preventive. The data set is classed as in vivo. The settings on record: in vivo.
Data set [18] deals with Pyricularia oryzae. It is filed as in vivo. The settings on record: in vivo.
The subject of data set [19] is Pyrenophora teres. The experiment in a line: Example D: Pyrenophora test (barley) / preventive. The data set is classed as in vivo. The following applies: in vivo.
Data set [20] deals with Fusarium nivale (var. majus). The experiment in a line: Example K: Fusarium nivale (var. majus) test (wheat) / preventive. It is filed as in vivo. The following applies: 500 ppm of active ingredient, preventive spray, evaluated 5 days after inoculation. How it is done: After the spray coating has been dried, the plants are slightly injured by using a sandblast and afterwards they are sprayed with a conidia suspension of Fusarium nivale (var. majus).
The test is evaluated 5 days after the inoculation.

Data set [21] relates to Septoria tritici. Kind of data set: Example J: Septoria tritici test (wheat) / preventive. The following applies: in vivo. The data set is classed as in vivo.
The test system of data set [22] is Leptosphaeria nodorum. The experiment in a line: Example C: Leptosphaeria test (wheat) / preventive. It is filed as in vivo. The settings on record: in vivo.
The mark [23] stands for this setting: Method A: HPLC, reverse phase C18, acetonitrile (0.1% formic acid)/water (0.09% formic acid) gradient.
Setting [24] is: Method B (HPLC, reverse phase C18).

Like-named read-outs stand apart in the source and are kept apart here.

As for `CCC(=O)Nc1cc(-c2c(-c3ccccc3)nn3ccoc23)ccn1` [Example 106], the “protection (% of efficacy)” value is 79% in data set [1], 100% in [5], 81% in data set [6] and 98% in data set [7]. Also, the “Growth inhibition of Fusarium graminearum in %” value (“Growth inhibition … in %” below) in data set [2] was found to be 65%. Moreover, the LogP in data set [3] (setting [23]) was 1.46. In [4], the “Inhibition of DON/AcDON in %” value came to 95%.
As for `C[Si]1(C)COc2c(-c3ccnc(N)c3)c(-c3cccs3)nn2C1` [Example 89, 4-[3,3-dimethyl-7-(2-thienyl)-3,4-dihydro-2H-pyrazolo[5,1-b][1,3,5]oxazasilin-8-yl]pyridin-2-amine], the “protection (% of efficacy)” value in data set [8] (dose of 500 ppm, rice plants, grading 6 days after contamination) is on record as 75%. Besides, the chromatographic logP is 1.55 in [3] (Method C (HPLC, reverse phase C18), read-out: LogP) and 1.55 in data set [3] (pH 2.3, intermediates of formula [II], HPLC, reverse phase C18, read-out: LogP (pH 2.3)).
Regarding `O=C(Nc1cc(-c2c(-c3ccc(F)cc3)nn3c2OCCC3)ccn1)C1C2CCCCC21` (centres unmarked) [Example 65], the entries for the “protection (% of efficacy)” value in data set [8] (in vivo) and in [9] were 80% and 71%, respectively. In addition, in data set [3] (setting [24]), the LogP came to 2.13.
With `CCC(=O)Nc1cc(-c2c(-c3ccc(F)cc3)nn3c(CC)coc23)ccn1` [Example 104], the “protection (% of efficacy)” value was determined as 79% in data set [1], 75% in [8] (in vivo), 85% in [5] and 88% in [6]. In data set [3] (setting [23]), the log partition coefficient (LogP) was determined as 2.23. The efficacy was determined as 93% in [10], 95% in data set [11] and 93% in [12].
For the compound `CCC(=O)N(C(=O)CC)c1cc(-c2c(-c3ccc(F)cc3F)nn3c2OCCC3)ccn1` [Example 95], in [8] (in vivo), the “protection (% of efficacy)” value was determined as 83%. Besides, the “Growth inhibition … in %” value in [2] is recorded as 77%. In addition, the LogP in data set [3] (setting [23]) was 2.68. In addition, the “Inhibition of DON/AcDON in %” value in data set [4] was 97%.
On to `O=C(Nc1cc(-c2c(-c3ccc(F)cc3)nn3c2OCCC3)ccn1)C1SCCS1` [Example 69], for which the “protection (% of efficacy)” value in data set [8] (in vivo) is reported as 100%; in data set [5], 100%; in data set [13], 81%; in data set [7], 100%; in data set [9], 79%. Besides, the “Growth inhibition … in %” value in data set [2] amounted to 83%. The log partition coefficient (LogP) in data set [3] (setting [24]) was determined as 2.1. Also, in data set [4], the “Inhibition of DON/AcDON in %” value came out at 96%.
As to `CCC(=O)Nc1cc(-c2c(-c3ccc(F)cc3)nn3c(C)coc23)ccn1` [Example 103], the entries for the “protection (% of efficacy)” value in [1] and in [5] were 93% and 80%, respectively. In data set [3] (setting [23]), this compound displayed a LogP of 1.86.
On to `CCC(C)C(=O)Nc1cc(-c2c(-c3ccccc3)nn3c2OCCC3)ccn1` (centres unmarked) [Example 10], for which the efficacy in [14] was 100%; in [10], 99%; in data set [15], 94%; in data set [16], 90%; in data set [17], 100%; in data set [18], 94%. The efficacy in data set [11] is listed as 94%; in data set [12], 95%; in data set [19], 80%; in [20] it was 100%; in [21], 86%; in data set [22], 80%. Further, the “Growth inhibition … in %” value in data set [2] is reported as 95%. The LogP in data set [3] (setting [24]) is on record as 1.63. In data set [4], the “Inhibition of DON/AcDON in %” value is 100%.
Take `CCC(=O)Nc1cc(-c2c(-c3ccc(F)cc3)nn3ccoc23)ccn1` [Example 105]: the “protection (% of efficacy)” value was 93% in [1]; 100% in data set [5]; 96% in [6]; 75% in data set [13]; 81% in [9]. Also, the “Growth inhibition … in %” value in [2] stood at 83%. Further, in data set [3] (setting [23]), the LogP worked out at 1.61. In data set [4], the “Inhibition of DON/AcDON in %” value is on record as 99%. In addition, the figures for the efficacy in [10], in data set [11] and in [12] were 93%, 100% and 95%, respectively.
